Results from patent publication US6737383B1, “Herbicidal oxadiazolidines” (priority 1999, dated 2004).

Columns and labels:
blackgrass = test: Test B pre/postemergence blackgrass; format: in vivo, Alopecurus myosuroides; conditions: for Blackgrass plant response rating: scale of 0 to 10 where 0 is no effect and 10 is complete control
Outline: (§1)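 Test chemicals in a non-phytotoxic solvent mixture with surfactant were sprayed preemergence onto planted seeds and postemergence onto plants 2 to 18 cm tall (1- to 4-leaf stage). After twelve to sixteen days in a greenhouse, injury was visually rated against untreated controls from 0 (no effect) to 10 (complete control).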

velvetleaf = test: Test B pre/postemergence velvetleaf; format: in vivo, Abutilon theophrasti; conditions: for Velvetleaf plant response rating: scale of 0 to 10 where 0 is no effect and 10 is complete control
Outline: as §1

bedstraw = test: Test B pre/postemergence bedstraw; format: in vivo, Galium aparine; conditions: Preemergence; for Bedstraw plant response rating: scale of 0 to 10 where 0 is no effect and 10 is complete control
Outline: as §1

smallflower flatsedge = test: Test B flood test smallflower flatsedge; format: in vivo, Cyperus difformis
Outline: (§2)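 Flood test on plants grown to the 2-leaf stage; treated plants kept in greenhouse twelve to sixteen days, then visually rated against controls on a 0 (no effect) to 10 (complete control) scale.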

cocklebur = test: Test B pre/postemergence cocklebur; format: in vivo, Xanthium strumarium; conditions: for Cocklebur plant response rating: scale of 0 to 10 where 0 is no effect and 10 is complete control
Outline: as §1

purple nutsedge = test: Test B pre/postemergence purple nutsedge; format: in vivo, Cyperus rotundus; conditions: for Nutsedge plant response rating: scale of 0 to 10 where 0 is no effect and 10 is complete control
Outline: as §1

duck salad = test: Test B flood test duck salad; format: in vivo, Heteranthera limosa
Outline: as §2

surinam grass = test: Test B pre/postemergence surinam grass; format: in vivo, Brachiaria decumbens; conditions: for B. signalgrass plant response rating: scale of 0 to 10 where 0 is no effect and 10 is complete control
Outline: as §1

wheat = test: Test B pre/postemergence wheat; format: in vivo, Triticum aestivum; conditions: Postemergence, Rate 125 g/ha; scale 0 to 10, 0 is no effect, 10 is complete control
Outline: as §1

[1] = Postemergence, Rate 125 g/ha, scale 0 to 10, 0 is no effect, 10 is complete control
[2] = Postemergence, Rate 250 g/ha, scale 0 to 10, 0 is no effect, 10 is complete control
[3] = Preemergence, Rate 62 g/ha, scale 0 to 10 (0 no effect, 10 complete control)
[4] = Rate 500 g/ha, Postemergence, scale 0 to 10, 0 no effect, 10 complete control
[5] = Postemergence (flood test), Rate 125 g/ha, scale 0 to 10, 0 is no effect, 10 is complete control
[6] = Rate 62 g/ha, Postemergence (flood test species), scale of 0 to 10 where 0 is no effect and 10 is complete control
[7] = Rate 62 g/ha, flood test species, Pre-emergence, visual evaluation after twelve to sixteen days
[8] = Rate 125 g/ha, under heading Pre-emergence, flood test species, visual evaluation after twelve to sixteen days
[9] = Rate 250 g/ha, Pre-emergence, flood-test species, scale 0 to 10, 0 is no effect, 10 is complete control
[10] = Rate 500 g/ha, listed under Postemergence (flood test species), scale 0 to 10, 0 no effect, 10 complete control
[11] = Rate 500 g/ha, Pre-emergence, flood test species, scale 0 to 10 (0 no effect, 10 complete control)
[12] = flood test species, listed under Postemergence, Rate 250 g/ha, scale 0 to 10, 0 is no effect, 10 is complete control

CC1CC1n1c(=O)on(C(=O)N(c2ccc(F)cc2F)C(C)C)c1=O (stereo not shown) [Compound 372]
Plant response rating, Blackgrass (blackgrass; [1]): 4
Plant response rating, Blackgrass (blackgrass; [2]): 7
Plant response rating, Blackgrass (blackgrass; [3]): 5
Blackgrass plant response rating (0 to 10 scale) (blackgrass; Preemergence, Rate 125 g/ha): 6
Blackgrass plant response rating (blackgrass; Preemergence, Rate 250 g/ha): 10
Blackgrass plant response rating (blackgrass; Preemergence, Rate 500 g/ha): 10
Blackgrass plant response rating (blackgrass; Rate 62 g/ha, Postemergence): 4
Plant response rating, Blackgrass (blackgrass; [4]): 10
Plant response rating, Velvetleaf (velvetleaf; [1]): 0
Plant response rating, Velvetleaf (velvetleaf; [2]): 2
Plant response rating, Velvetleaf (velvetleaf; [3]): 3
Velvetleaf plant response rating (0 to 10 scale) (velvetleaf; Preemergence, Rate 125 g/ha): 5
Velvetleaf plant response rating (velvetleaf; Preemergence, Rate 250 g/ha): 6
Velvetleaf plant response rating (velvetleaf; Preemergence, Rate 500 g/ha): 7
Velvetleaf plant response rating (velvetleaf; Rate 62 g/ha, Postemergence): 0
Plant response rating, Velvetleaf (velvetleaf; [4]): 2
Plant response rating, Bedstraw (bedstraw; Rate 62 g/ha, scale 0 to 10 (0 no effect, 10 complete control)): 0
Bedstraw plant response rating (0 to 10 scale) (bedstraw; Rate 125 g/ha): 2
Bedstraw plant response rating (bedstraw; Rate 250 g/ha): 10
Bedstraw plant response rating (bedstraw; Rate 500 g/ha): 10
Plant response rating, S. Flatsedge (smallflower flatsedge; [5]): 2
S. Flatsedge plant response rating (smallflower flatsedge; [6]): 2
Plant response rating, S. Flatsedge (0 to 10 scale, 0 is no effect, 10 is complete control) (smallflower flatsedge; [7]): 0
S. Flatsedge plant response rating (0 to 10 scale, 0 is no effect, 10 is complete control) (smallflower flatsedge; [8]): 0
S. Flatsedge plant response rating (smallflower flatsedge; [9]): 0
Plant response rating, S. Flatsedge (smallflower flatsedge; [10]): 8
S. Flatsedge plant response rating (smallflower flatsedge; [11]): 0
Plant response rating, S. Flatsedge (smallflower flatsedge; [12]): 8
Plant response rating, Cocklebur (cocklebur; [1]): 0
Plant response rating, Cocklebur (cocklebur; [2]): 0
Plant response rating, Cocklebur (cocklebur; [3]): 0
Cocklebur plant response rating (0 to 10 scale) (cocklebur; Preemergence, Rate 125 g/ha): 0
Cocklebur plant response rating (cocklebur; Preemergence, Rate 250 g/ha): 2
Cocklebur plant response rating (cocklebur; Preemergence, Rate 500 g/ha): 2
Cocklebur plant response rating (cocklebur; Rate 62 g/ha, Postemergence): 0
Plant response rating, Cocklebur (cocklebur; [4]): 3
Plant response rating, Nutsedge (purple nutsedge; [1]): 0
Plant response rating, Nutsedge (purple nutsedge; [2]): 0
Plant response rating, Nutsedge (purple nutsedge; [3]): 0
Nutsedge plant response rating (0 to 10 scale) (purple nutsedge; Preemergence, Rate 125 g/ha): 0
Nutsedge plant response rating (purple nutsedge; Preemergence, Rate 250 g/ha): 0
Nutsedge plant response rating (purple nutsedge; Preemergence, Rate 500 g/ha): 10
Nutsedge plant response rating (purple nutsedge; Rate 62 g/ha, Postemergence): 0
Plant response rating, Nutsedge (purple nutsedge; [4]): 0
Plant response rating, Ducksalad (duck salad; [5]): 6
Ducksalad plant response rating (duck salad; [6]): 3
Plant response rating, Ducksalad (0 to 10 scale, 0 is no effect, 10 is complete control) (duck salad; [7]): 0
Ducksalad plant response rating (0 to 10 scale, 0 is no effect, 10 is complete control) (duck salad; [8]): 0
Ducksalad plant response rating (duck salad; [9]): 0
Plant response rating, Ducksalad (duck salad; [10]): 6
Ducksalad plant response rating (duck salad; [11]): 0
Plant response rating, Ducksalad (duck salad; [12]): 6
Plant response rating, B. signalgrass (surinam grass; [1]): 2
Plant response rating, B. signalgrass (surinam grass; [2]): 4
Plant response rating, B. signalgrass (surinam grass; [3]): 0
B. signalgrass plant response rating (0 to 10 scale, 0 is no effect, 10 is complete control) (surinam grass; Preemergence, Rate 125 g/ha): 4
B. signalgrass plant response rating (surinam grass; Preemergence, Rate 250 g/ha): 6
B. signalgrass plant response rating (surinam grass; Preemergence, Rate 500 g/ha): 8
B. signalgrass plant response rating (surinam grass; Rate 62 g/ha, Postemergence): 0
Plant response rating, B. signalgrass (surinam grass; [4]): 7
Plant response rating, Wheat (wheat): 0
